Test system: HSV-1 (strain SC16)
Assay: Virus yield reduction assay (plaque assay, Vero cell monolayers)
Format: cell-based
Procedure: African green monkey kidney cells (Vero) (ATCC CCL-81) were grown in Dulbecco's modified Eagle's medium (DMEM) supplemented with 10% fetal calf serum. HSV-1 (strain SC16), carrying a lacZ gene driven by the CMV IE-1 promoter to express β-galactosidase, was propagated on Vero cells monolayers.
For all experiments, peptides, dendrimers, and peptidodendrimers were dissolved in DMEM without serum and used at concentrations of 0, 5.5, 55, 280, and 550 nM. All experiments were conducted in triplicate. The percentage of infectivity inhibition was calculated by setting the number of plaques obtained in positive controls where no antiviral compounds were added to the cell monolayers to 0% inhibition.
Confluent Vero cell monolayers (12-well plates) were washed with phosphate-buffered saline (PBS) and infected with HSV-1 at multiplicity of infection (MOI) of 1 plaque-forming unit (pfu)/cell for 1 hour at 37° C. The virus inocula were mixed with the peptide/dendrimer/conjugate(s) to be tested, as described in Example 3 above. […] Plaques were stained with X-gal (5-bromo-4-chloro-3-indolyl-([…]-galactopyranoside) and microscopically counted. The mean plaque counts for each drug concentration were expressed as a percentage of the mean plaque count for the control virus. The number of plaques was plotted as a function of drug concentration. See FIG. 6. […]

Row | Sequence | inhibitory concentration (range in words) (peptide alone vs peptide conjugated to dendrimer) | antiviral activity relative to comparators (in words) (HSV-1 on Vero cells, FIGS. 6 and 18)
1 | FARLQFTYNHIQRHVRDMEGR (SEQ ID NO: 23) (HSV-1 envelope glycoprotein-derived peptide) [gB8, Residues 503-523 of envelope glycoprotein B] | micromolar | 
2 | AAHLIDALYAEFLGGRVLTT (SEQ ID NO: 53) (HSV-1 envelope glycoprotein-derived peptide) [PgH, Residues 493-512 of envelope glycoprotein H] |  | less active than gB8
